Our source for the half-life and IC50 values is patent US6525022B1, “Receptor specific atrial natriuretic peptides” (Genentech, Inc., priority 1993, dated 2003).

Data set [1] has as its target human NEP (hNEP), endopeptidase 24.11 (Homo sapiens, UniProt P08473). The experiment in a line: Degradation of ANF variants by human NEP, half-life by HPLC.
In data set [2] the target is T1, human natriuretic peptide receptor-A (human, UniProt P16066 33-1061).
T1 construct: whole, on cells; also called hNPR-A; human NPR-A
T1 sequence (looked up): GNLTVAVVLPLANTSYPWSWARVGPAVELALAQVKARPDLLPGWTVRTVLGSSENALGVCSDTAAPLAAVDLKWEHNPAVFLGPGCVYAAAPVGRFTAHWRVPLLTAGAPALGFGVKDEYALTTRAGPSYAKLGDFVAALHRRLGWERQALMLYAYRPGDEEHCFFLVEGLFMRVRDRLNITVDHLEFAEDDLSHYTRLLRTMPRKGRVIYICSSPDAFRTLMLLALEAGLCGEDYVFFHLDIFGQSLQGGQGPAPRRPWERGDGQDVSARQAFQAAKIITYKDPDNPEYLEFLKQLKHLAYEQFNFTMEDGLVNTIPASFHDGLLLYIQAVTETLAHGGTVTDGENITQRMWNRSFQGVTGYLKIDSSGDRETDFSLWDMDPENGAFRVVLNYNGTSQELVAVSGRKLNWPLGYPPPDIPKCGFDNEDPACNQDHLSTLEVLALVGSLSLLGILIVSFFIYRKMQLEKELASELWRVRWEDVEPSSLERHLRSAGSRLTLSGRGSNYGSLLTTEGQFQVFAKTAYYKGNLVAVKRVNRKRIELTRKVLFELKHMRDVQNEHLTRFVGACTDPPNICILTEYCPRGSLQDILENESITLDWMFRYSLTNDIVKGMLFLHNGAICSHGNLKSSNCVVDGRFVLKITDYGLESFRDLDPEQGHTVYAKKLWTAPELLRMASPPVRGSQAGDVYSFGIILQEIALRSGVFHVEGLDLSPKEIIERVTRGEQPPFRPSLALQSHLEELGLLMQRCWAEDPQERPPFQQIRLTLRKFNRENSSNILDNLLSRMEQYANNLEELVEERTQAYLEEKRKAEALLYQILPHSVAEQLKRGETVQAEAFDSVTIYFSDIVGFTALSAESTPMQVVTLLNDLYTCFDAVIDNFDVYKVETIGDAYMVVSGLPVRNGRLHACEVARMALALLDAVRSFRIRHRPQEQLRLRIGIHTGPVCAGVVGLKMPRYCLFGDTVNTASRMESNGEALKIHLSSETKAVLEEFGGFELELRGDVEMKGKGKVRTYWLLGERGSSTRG
Description: competition binding, Table I; tracer and receptor format not given.

The target in data set [3] is T2, human natriuretic peptide clearance receptor-C (human, UniProt P17342 27-541).
T2 construct: whole, on cells; also called hNPR-C; human NPR-C
T2 sequence (looked up): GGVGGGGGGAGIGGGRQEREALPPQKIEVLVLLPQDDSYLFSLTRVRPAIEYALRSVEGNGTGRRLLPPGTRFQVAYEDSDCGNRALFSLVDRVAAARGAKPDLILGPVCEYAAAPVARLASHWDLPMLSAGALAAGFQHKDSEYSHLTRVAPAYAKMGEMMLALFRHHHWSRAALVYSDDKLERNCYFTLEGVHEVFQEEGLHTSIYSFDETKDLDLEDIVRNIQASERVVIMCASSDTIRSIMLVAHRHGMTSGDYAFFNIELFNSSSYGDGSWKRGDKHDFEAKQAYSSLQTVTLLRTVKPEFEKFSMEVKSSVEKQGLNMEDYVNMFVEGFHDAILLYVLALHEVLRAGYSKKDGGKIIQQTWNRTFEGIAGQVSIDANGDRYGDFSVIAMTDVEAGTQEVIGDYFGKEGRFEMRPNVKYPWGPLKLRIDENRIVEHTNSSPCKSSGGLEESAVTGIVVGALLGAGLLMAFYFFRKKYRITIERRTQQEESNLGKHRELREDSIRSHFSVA
The data set is described as above.

The mark [4] stands for this setting: isolated human NEP (endopeptidase 24.11) in HEPES buffer, Half-Life (min.), FIG. 7: ANF variants 32 nM/ml, NEP 0.45 μg/ml.
The mark [5] stands for this setting: isolated human NEP (endopeptidase 24.11) in HEPES buffer, Half-Life (min.), FIG. 6: ANF variants 0.5 mg/ml, NEP 0.225 mg/ml.

Where two headings read alike, the source gives them in different places. Where a SMILES comes first, the peptide text is derived from it. Bridges are numbered along the chain shown (N, C = ends). Where no end group is shown, it is not given here. [ ]: non-standard residue; d: D form. Cha = N[C@@H](CC1CCCCC1)C(=O)O; hCys = N[C@@H](CCS)C(=O)O

human NEP (hNEP), endopeptidase 24.11, sequence (P08473 whole entry): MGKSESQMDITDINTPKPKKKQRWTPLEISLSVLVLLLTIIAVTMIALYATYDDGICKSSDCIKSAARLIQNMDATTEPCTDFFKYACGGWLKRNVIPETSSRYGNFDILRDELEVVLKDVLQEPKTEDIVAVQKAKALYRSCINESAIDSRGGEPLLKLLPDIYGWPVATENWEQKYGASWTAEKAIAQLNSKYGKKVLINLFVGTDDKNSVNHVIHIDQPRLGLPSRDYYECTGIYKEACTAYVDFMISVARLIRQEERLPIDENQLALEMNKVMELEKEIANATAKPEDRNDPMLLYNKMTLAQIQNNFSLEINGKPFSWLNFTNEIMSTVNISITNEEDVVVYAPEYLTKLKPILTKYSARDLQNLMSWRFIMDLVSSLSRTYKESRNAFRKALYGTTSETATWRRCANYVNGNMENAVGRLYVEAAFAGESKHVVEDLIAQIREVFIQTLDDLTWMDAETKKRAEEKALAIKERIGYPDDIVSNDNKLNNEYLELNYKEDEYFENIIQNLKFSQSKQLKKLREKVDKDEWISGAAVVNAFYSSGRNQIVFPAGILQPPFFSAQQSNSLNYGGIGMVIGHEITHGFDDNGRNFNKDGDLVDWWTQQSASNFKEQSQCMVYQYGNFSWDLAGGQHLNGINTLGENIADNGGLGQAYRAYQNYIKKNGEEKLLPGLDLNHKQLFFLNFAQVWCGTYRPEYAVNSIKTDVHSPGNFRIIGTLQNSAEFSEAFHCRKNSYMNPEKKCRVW

In turn, `CC[C@H](C)[C@@H]1NC(=O)[C@H](CO)NC(=O)[C@H](CC(=O)O)NC(=O)[C@H]([C@@H](C)CC)NC(=O)[C@H](CCCNC(=N)N)NC(=O)CNC(=O)CNC(=O)[C@H](Cc2ccccc2)NC(=O)[C@@H](NC(=O)[C@H](CO)NC(=O)[C@H](CO)NC(=O)[C@H](CCCNC(=N)N)NC(=O)[C@H](CCCNC(=N)N)NC(=O)[C@H](CC(C)C)NC(=O)[C@@H](N)CO)CSSC[C@@H](C(=O)N[C@@H](CC(N)=O)C(=O)N[C@@H](CO)C(=O)N[C@@H](Cc2ccccc2)C(=O)N[C@@H](CCCNC(=N)N)C(=O)N[C@@H](Cc2ccc(O)cc2)C(=O)O)NC(=O)CNC(=O)[C@H](CC(C)C)NC(=O)CNC(=O)[C@H](CO)NC(=O)[C@H](CCC(N)=O)NC(=O)[C@H](C)NC(=O)[C@H](CCCNC(=N)N)NC1=O` [ANF 25] (H-SLRRSSCFGGRIDSIRAQSGLGCNSFRY-OH; disulfide 7-23 (inferred); N-terminus and C-terminus assumed) showed a half-life at 32 nM/ml in data set [1] (setting [4]) of 3.32 h.
For the molecule `CC[C@H](C)[C@@H]1NC(=O)[C@H](CCCNC(=N)N)NC(=O)[C@H](CC(=O)O)NC(=O)[C@H]([C@@H](C)CC)NC(=O)[C@H](CCCNC(=N)N)NC(=O)CNC(=O)CNC(=O)[C@H](Cc2ccccc2)NC(=O)[C@@H](NC(=O)[C@H](CO)NC(=O)[C@H](CO)NC(=O)[C@H](CCCNC(=N)N)NC(=O)[C@H](CCCNC(=N)N)NC(=O)[C@H](CC(C)C)NC(=O)[C@H](CO)NC(=O)[C@H](CCCNC(=N)N)NC(=O)[C@@H]2CCCN2C(=O)[C@H](C)NC(=O)[C@@H](N)[C@@H](C)O)CSSC[C@@H](C(=O)N[C@@H](CC(N)=O)C(=O)N[C@@H](CO)C(=O)N[C@@H](Cc2ccccc2)C(=O)N[C@@H](CCCNC(=N)N)C(=O)N[C@@H](Cc2ccc(O)cc2)C(=O)O)NC(=O)CNC(=O)[C@H](CC(C)C)NC(=O)CNC(=O)[C@H](CO)NC(=O)[C@H](CCC(N)=O)NC(=O)[C@H](C)NC(=O)[C@H](CCCNC(=N)N)NC1=O` [ANF 23] (H-TAPRSLRRSSCFGGRIDRIRAQSGLGCNSFRY-OH; disulfide 11-27), the half-life at 0.5 mg/ml in data set [1] came to 12.3 h.
In data set [1] (setting [5]), `CC[C@H](C)[C@@H]1NC(=O)[C@H](CCCNC(=N)N)NC(=O)[C@H](CC(=O)O)NC(=O)[C@H](CCSC)NC(=O)[C@H](CO)NC(=O)CNC(=O)[C@H]([C@@H](C)O)NC(=O)[C@H](Cc2ccccc2)NC(=O)[C@@H](NC(=O)[C@H](CO)NC(=O)[C@H](CO)NC(=O)[C@H](CCCNC(=N)N)NC(=O)[C@H](CCCNC(=N)N)NC(=O)[C@H](CC(C)C)NC(=O)[C@@H](N)CO)CSSC[C@@H](C(=O)N[C@@H](CC(N)=O)C(=O)N[C@@H](CO)C(=O)N[C@@H](Cc2ccccc2)C(=O)N[C@@H](CCCNC(=N)N)C(=O)N[C@@H](Cc2ccc(O)cc2)C(=O)O)NC(=O)CNC(=O)[C@H](CC(C)C)NC(=O)CNC(=O)[C@H](CO)NC(=O)[C@H](CCC(N)=O)NC(=O)[C@H](C)NC(=O)CNC1=O` [ANF 50] (H-SLRRSSCFTGSMDRIGAQSGLGCNSFRY-OH; disulfide 7-23; C-terminus assumed) had a half-life at 0.5 mg/ml of 1.55 h.
Still for that read-out and setting: for `CC[C@H](C)[C@@H]1NC(=O)[C@H](CCCNC(=N)N)NC(=O)[C@H](CC(=O)O)NC(=O)[C@H]([C@@H](C)CC)NC(=O)[C@H](CCCNC(=N)N)NC(=O)CNC(=O)CNC(=O)[C@H](Cc2ccccc2)NC(=O)[C@@H](NC(=O)[C@H](CO)NC(=O)[C@H](CO)NC(=O)[C@H](CCCNC(=N)N)NC(=O)[C@H](CCCNC(=N)N)NC(=O)[C@H](CC(C)C)NC(=O)[C@@H](N)CO)CSSC[C@@H](C(=O)N[C@@H](CC(N)=O)C(=O)N[C@@H](CO)C(=O)N[C@@H](Cc2ccccc2)C(=O)N[C@@H](CCCNC(=N)N)C(=O)N[C@@H](Cc2ccc(O)cc2)C(=O)O)NC(=O)CNC(=O)[C@H](CC(C)C)NC(=O)CNC(=O)[C@H](CO)NC(=O)[C@H](CCC(N)=O)NC(=O)[C@H](C)NC(=O)[C@H](CCCNC(=N)N)NC1=O` [ANF 24] the value was 10 h.
For the molecule `CC[C@H](C)[C@@H]1NC(=O)[C@H](CCCNC(=N)N)NC(=O)[C@H](CC(=O)O)NC(=O)[C@H](CCSC)NC(=O)[C@@H]2CCCN2C(=O)[C@H](CCCNC(=N)N)NC(=O)[C@H](CCC(=O)O)NC(=O)[C@H](Cc2ccccc2)NC(=O)[C@@H](NC(=O)[C@H](CO)NC(=O)[C@H](CO)NC(=O)[C@H](CCCNC(=N)N)NC(=O)[C@H](CCCNC(=N)N)NC(=O)[C@H](CC(C)C)NC(=O)[C@@H](N)CO)CSSC[C@@H](C(=O)N[C@@H](CC(N)=O)C(=O)N[C@@H](CO)C(=O)N[C@@H](Cc2ccccc2)C(=O)N[C@@H](CCCNC(=N)N)C(=O)N[C@@H](Cc2ccc(O)cc2)C(=O)O)NC(=O)CNC(=O)[C@H](CC(C)C)NC(=O)CNC(=O)[C@H](CO)NC(=O)[C@H](CCC(N)=O)NC(=O)[C@H](C)NC(=O)CNC1=O` [ANF 51] (H-SLRRSSCFERPMDRIGAQSGLGCNSFRY-OH; disulfide 7-23; C-terminus assumed), the half-life at 32 nM/ml in data set [1] (isolated human NEP (endopeptidase 24.11) in HEPES buffer, Half-life, FIG. 8: 32 nM/ml peptide, 0.075 μg/ml NEP) is 32.1 h; in data set [1] (isolated human NEP (endopeptidase 24.11) in HEPES buffer, Half-life, FIG. 8: 32 nM/ml peptide, 0.15 μg/ml NEP), 4.48 h.
`CC[C@H](C)[C@@H]1NC(=O)[C@H](CCCNC(=N)N)NC(=O)[C@H](CC(=O)O)NC(=O)[C@H]([C@@H](C)CC)NC(=O)[C@H](CO)NC(=O)CNC(=O)[C@H]([C@@H](C)O)NC(=O)[C@H](Cc2ccccc2)NC(=O)[C@@H](NC(=O)[C@H](CO)NC(=O)[C@H](CO)NC(=O)[C@H](CCCNC(=N)N)NC(=O)[C@H](CCCNC(=N)N)NC(=O)[C@H](CC(C)C)NC(=O)[C@@H](N)CO)CSSC[C@@H](C(=O)N[C@@H](CC(N)=O)C(=O)N[C@@H](CO)C(=O)N[C@@H](Cc2ccccc2)C(=O)N[C@@H](CCCNC(=N)N)C(=O)N[C@@H](Cc2ccc(O)cc2)C(=O)O)NC(=O)CNC(=O)[C@H](CC(C)C)NC(=O)CNC(=O)[C@H](CO)NC(=O)[C@@H]2CCCN2C(=O)[C@H](C)NC(=O)[C@H](CCCNC(=N)N)NC1=O` [ANF 31] (H-SLRRSSCFTGSIDRIRAPSGLGCNSFRY-OH; disulfide 7-23; C-terminus assumed) had a half-life at 32 nM/ml in data set [1] (setting [4]) of 2.97 h.
The same measure, in the same setting: for `CC[C@H](C)[C@@H]1NC(=O)[C@H](CCCNC(=N)N)NC(=O)[C@H](CC(=O)O)NC(=O)[C@H]([C@@H](C)CC)NC(=O)[C@H](CO)NC(=O)CNC(=O)[C@H]([C@@H](C)O)NC(=O)[C@H](CC2CCCCC2)NC(=O)[C@@H](NC(=O)[C@H](CO)NC(=O)[C@H](CO)NC(=O)[C@H](CCCNC(=N)N)NC(=O)[C@H](CCCNC(=N)N)NC(=O)[C@H](CC(C)C)NC(=O)[C@@H](N)CO)CSSC[C@@H](C(=O)N[C@@H](CC(N)=O)C(=O)N[C@@H](CO)C(=O)N[C@@H](Cc2ccccc2)C(=O)N[C@@H](CCCNC(=N)N)C(=O)N[C@@H](Cc2ccc(O)cc2)C(=O)O)NC(=O)CNC(=O)[C@H](CC(C)C)NC(=O)CNC(=O)[C@H](CO)NC(=O)[C@H](CCC(N)=O)NC(=O)[C@H](C)NC(=O)[C@H](CCCNC(=N)N)NC1=O` [ANF 79] (H-SLRRSSC[Cha]TGSIDRIRAQSGLGCNSFRY-OH; disulfide 7-23; C-terminus assumed) the value was 7.95 h.

B1: ANF 74 (peptide)
peptide: SLRRSSC[dS]FTGSIDRIRAQSGLGCNSFRY
modifications: disulfide 7-24
B1: the IC50 in data set [2] was 29.4 nM; in data set [3], 10000 nM.

B2: ANF 70 (peptide)
peptide: SLDRSSCFTGSLDSIRA[hCys]SGLGCNSFR[hCys]
modifications: disulfide 18-28, 7-23
As to B2, the IC50 in data set [2] is 3.3 nM.

The term half-life denotes the time in which the quantity being followed falls by half. Broadly, the IC50 is the midpoint of a concentration-inhibition curve.
